Data on 34 molecules can be found in patent EP2272817A1, “PAI-1 INHIBITOR” (Institute of Medicinal Molecular Design, Inc., priority 2008, dated 2009).

The experiment deals with recombinant human PAI-1 (Homo sapiens, UniProt P05121). Briefly: Test Example 2: Human PAI-1 Inhibitory Activity (pH 7.4 HEPES buffer, 10 minutes incubation with two-chain tPA). The experiment is classed as biochemical. On the set-up: purchased Molecular Innovations, Inc. The settings on record: read-out: Inhibition Rate of PAI-1 Activity (%). How it is done:
0.1 M HEPES, 0.1 M NaCl. 1 mM EDTA. 0.1 % Polyethylene glycol 8,000 (Hampton Research Corporation),
2 mM Dimethyldecylphoshine oxide [Apo-10] (Fluka Corporation)

Sequence of recombinant human PAI-1 (P05121 24-402): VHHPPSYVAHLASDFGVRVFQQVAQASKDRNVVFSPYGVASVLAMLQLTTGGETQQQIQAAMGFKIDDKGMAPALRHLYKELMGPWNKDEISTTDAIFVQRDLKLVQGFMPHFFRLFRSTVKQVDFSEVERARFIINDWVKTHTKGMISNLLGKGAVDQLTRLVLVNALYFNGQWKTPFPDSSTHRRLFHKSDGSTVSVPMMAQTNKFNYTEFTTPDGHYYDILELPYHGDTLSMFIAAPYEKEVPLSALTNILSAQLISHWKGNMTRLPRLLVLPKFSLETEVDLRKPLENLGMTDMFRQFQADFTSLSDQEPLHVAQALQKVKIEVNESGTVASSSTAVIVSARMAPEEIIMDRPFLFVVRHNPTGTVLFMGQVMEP

The inhibition is the drop in the measured response relative to a control, in per cent. Turning to `CC(C)(C)[C@H]1CC[C@H](N(C(=O)C(=O)O)c2ccc(-c3ccc(OC(F)(F)F)cc3)cc2)CC1` [Compound 665], the inhibition at 0.1 µM worked out at 9%, the inhibition at 0.3 µM was found to be 8%, the inhibition at 1 µM stood at 67% and the inhibition at 3 µM is more than 99%.
On the same counts, the results for `O=C(O)C(=O)N(CCCCc1ccccc1)c1ccc(N2CCCCCC2)c(-c2ccc(OC(F)(F)F)cc2)c1` [Compound 674] are 5%, 55%, more than 99% and 98%.
Turning to `CCCCCOc1ccc(-c2ccc(OC(F)(F)F)cc2)cc1N(CCCCC)C(=O)C(=O)O` [Compound 366], the inhibition at 0.1 µM came to 8%, the inhibition at 0.3 µM turned out to be 24%, the inhibition at 1 µM was 46% and the inhibition at 3 µM was found to be 96%.
On the same counts, the results for `CC(Oc1cc(-c2ccc(OC(F)(F)F)cc2)ccc1CCC(=O)O)c1ccccc1` (stereo not shown) [Compound 501] are 12%, 0%, 12% and 83%.
As for `O=C(O)CCc1ccc(-c2ccc(OC(F)(F)F)cc2)cc1Oc1ccc(C(F)(F)F)cc1` [Compound 474], the inhibition at 0.1 µM came out at 2%, the inhibition at 0.3 µM was 11%, the inhibition at 1 µM was 43% and the inhibition at 3 µM is more than 99%.
Take `CC(C)(C)c1ccc(Sc2cc(-c3ccc(OC(F)(F)F)cc3)ccc2C(=O)O)cc1` [Compound 547]: the inhibition at 0.1 µM was 4%, the inhibition at 0.3 µM is 17%, the inhibition at 1 µM turned out to be 97% and the inhibition at 3 µM is more than 99%.
For the molecule `Cc1cccc(-c2ccc(OCC(=O)O)c(Oc3ccc(C(C)(C)C)cc3)c2)c1` [Compound 319], the inhibition at 0.1 µM was 0%, the inhibition at 0.3 µM came to 9%, the inhibition at 1 µM is 17% and the inhibition at 3 µM is 70%.
Take `CCC(CC)Oc1ccc(-c2ccc(CCC(=O)O)c(Oc3ccc(C(C)(C)C)cc3)c2)cc1` [Compound 522]: the inhibition at 0.1 µM stood at 33%, the inhibition at 0.3 µM came to 71%, the inhibition at 1 µM stood at 98% and the inhibition at 3 µM was found to be 98%.
Regarding `CC(C)c1ccc(Oc2cc(-c3ccc(OC(F)(F)F)cc3)ccc2OCC(=O)O)cc1` [Compound 333], the inhibition at 0.1 µM came out at 4%, the inhibition at 0.3 µM worked out at 10%, the inhibition at 1 µM turned out to be 28% and the inhibition at 3 µM is 91%.
For the molecule `CC(C)(C)c1ccc(Sc2cc(-c3ccc(OC(F)(F)F)cc3)ccc2CC(=O)O)cc1` [Compound 530], the inhibition at 0.1 µM came out at 17%, the inhibition at 0.3 µM stood at 21%, the inhibition at 1 µM is 93% and the inhibition at 3 µM was more than 99%.
In the case of `CCCCC(Oc1cc(Oc2ccc(OC(F)(F)F)cc2)ccc1OCCCCc1ccccc1)C(=O)O` (stereo not shown) [Compound 309], the inhibition at 0.1 µM is 1%, the inhibition at 0.3 µM worked out at 17%, the inhibition at 1 µM stood at 66% and the inhibition at 3 µM is 91%.
On the same counts, the results for `CC(C)(C)c1ccc(Sc2cc(-c3ccc(OC(F)(F)F)cc3)ccc2/C=C/C(=O)O)cc1` [Compound 462] are 37%, 94%, 97% and 95%.
On the same counts, the results for `CCCCCOc1cc(-c2ccc(OC(F)(F)F)cc2)ccc1N(CCCCc1ccccc1)C(=O)C(=O)O` [Compound 367] are 10%, 26%, 52% and 94%.
On the same counts, the results for `CC(C)(C)c1cccc(Oc2cc(-c3ccc(OC(F)(F)F)cc3)ccc2OCC(=O)O)c1` [Compound 436] are 3%, 19%, 63% and more than 99%.
As to `CCCCCOc1ccc(-c2ccc(OC(F)(F)F)cc2)cc1N(CCCCc1ccc(F)cc1)C(=O)C(=O)O` [Compound 382], the inhibition at 0.1 µM worked out at 13%, the inhibition at 0.3 µM was 12%, the inhibition at 1 µM came out at 84% and the inhibition at 3 µM turned out to be 97%.
On to `CC(C)(C)c1ccc(Oc2cc(-c3ccccc3OC(F)(F)F)ccc2OCC(=O)O)cc1` [Compound 456], for which the inhibition at 0.1 µM is 7%, the inhibition at 0.3 µM is 13%, the inhibition at 1 µM came out at 70% and the inhibition at 3 µM worked out at 98%.
On the same counts, the results for `O=C(O)C(=O)N(CCCCc1ccccc1)c1cc(-c2ccc(OC(F)(F)F)cc2)ccc1OCCCC1CCCCC1` [Compound 656] are 24%, 64%, 95% and 88%.
On the same counts, the results for `CC(C)(C)c1ccc(Oc2cc(Nc3ccc(OC(F)(F)F)cc3)ccc2/C=C/C(=O)O)cc1` [Compound 531] are 3%, 38%, 94% and 96%.
In the case of `CCCCCOc1ccc(-c2ccccc2)cc1N(CCCCc1ccccc1)C(=O)C(=O)O` [Compound 360], the inhibition at 0.1 µM was found to be 5%, the inhibition at 0.3 µM was 8%, the inhibition at 1 µM turned out to be 35% and the inhibition at 3 µM was found to be 92%.
On the same counts, the results for `CC(C)(C)c1cccc(Oc2ccc(-c3ccc(OC(F)(F)F)cc3)cc2/C=C/C(=O)O)c1` [Compound 437] are 0%, 12%, 67% and 98%.
On the same counts, the results for `CCCCCOc1ccc(-c2ccc(OC(F)(F)F)cc2)cc1N(CCCCc1cc(C)ccc1C)C(=O)C(=O)O` [Compound 670] are 6%, 55%, 97% and 94%.
For `O=C(O)C(=O)N(CCCCc1ccccc1)c1ccc(N2CCSCC2)c(-c2ccc(OC(F)(F)F)cc2)c1` [Compound 675] the same measures were 10%, 14%, 95% and more than 99%.
As for `CCCCC(Oc1cc(Oc2ccc(C(C)(C)C)cc2)cc(-c2ccc(OC(F)(F)F)cc2)c1)C(=O)O` (stereo not shown) [Compound 426], the inhibition at 0.1 µM stood at 10%, the inhibition at 0.3 µM came to 29%, the inhibition at 1 µM is 95% and the inhibition at 3 µM was determined as 97%.
In the case of `COc1ccc(-c2ccc(OC(F)(F)F)cc2)cc1N(CCCCc1ccccc1)C(=O)C(=O)O` [Compound 651], the inhibition at 0.1 µM is 0%, the inhibition at 0.3 µM was found to be 0%, the inhibition at 1 µM worked out at 15% and the inhibition at 3 µM is 74%.
For `CCCCCCCCCOc1ccc(-c2ccc(OC(F)(F)F)cc2)cc1N(CCCCc1ccccc1)C(=O)C(=O)O` [Compound 364], the inhibition at 0.1 µM is 41%, the inhibition at 0.3 µM was determined as 94%, the inhibition at 1 µM worked out at 97% and the inhibition at 3 µM stood at 92%.
Turning to `CCCCCOc1cc(-c2ccc(OC(F)(F)F)cc2)cc(N(CCCCc2ccccc2)C(=O)C(=O)O)c1OCCCCC` [Compound 372], the inhibition at 0.1 µM is 2%, the inhibition at 0.3 µM was found to be 27%, the inhibition at 1 µM turned out to be 97% and the inhibition at 3 µM is 93%.
For `CCCCCCOc1ccc(-c2ccc(OC(F)(F)F)cc2)cc1OC(CCCCCC)C(=O)O` (stereo not shown) [Compound 429] the same measures were 7%, 9%, 93% and 95%.
On the same counts, the results for `Cc1cc(C)cc(COc2ccc(-c3ccc(OC(F)(F)F)cc3)cc2N(CCCCc2ccccc2)C(=O)C(=O)O)c1` [Compound 662] are 18%, 28%, 98% and 95%.
For `CCCCc1ccc(-c2ccc(Oc3ccc(C(C)(C)C)cc3)c(OCC(=O)O)c2)cc1` [Compound 505] the same measures were 0%, 33%, more than 99% and more than 99%.
Turning to `CCC(C)(C)c1ccc(Oc2cc(-c3ccc(OC(F)(F)F)cc3)ccc2CCC(=O)O)cc1` [Compound 475], the inhibition at 0.1 µM stood at 4%, the inhibition at 0.3 µM worked out at 27%, the inhibition at 1 µM stood at 94% and the inhibition at 3 µM is more than 99%.
Consider `CCCCCOc1ccc(-c2ccc(OC(F)(F)F)cc2)cc1N(CCCCOc1ccccc1)C(=O)C(=O)O` [Compound 374], for which the inhibition at 0.1 µM is 5%, the inhibition at 0.3 µM was found to be 16%, the inhibition at 1 µM was found to be 57% and the inhibition at 3 µM was more than 99%.
Take `O=C(O)C(=O)N(CCCCc1ccccc1)c1cc(-c2ccc(OC(F)(F)F)cc2)ccc1OCCCCc1ccccc1` [Compound 354]: the inhibition at 0.1 µM turned out to be 5%, the inhibition at 0.3 µM was 10%, the inhibition at 1 µM came out at 91% and the inhibition at 3 µM stood at 89%.
As for `CC(C)(C)c1ccc(Oc2cc(-c3cc(Cl)ccc3Cl)ccc2CCC(=O)O)cc1` [Compound 484], the inhibition at 0.1 µM was determined as 0%, the inhibition at 0.3 µM was 7%, the inhibition at 1 µM worked out at 73% and the inhibition at 3 µM was more than 99%.
On the same counts, the results for `O=C(O)CCc1cc(-c2ccc(OC(F)(F)F)cc2)ccc1OCCCCCOc1ccc(-c2ccc(OC(F)(F)F)cc2)cc1CCC(=O)O` [Compound 544] are 0%, 3%, 56% and 92%.
